Consider 17 molecules from patent US20240018123A1, “COMPOUND FOR INHIBITING OR DISINTEGRATING ANDROGEN RECEPTOR, AND PHARMACEUTICAL USE THEREOF” (KOREA RESEARCH INSTITUTE OF CHEMICAL TECHNOLOGY, priority 2020, published 2024).

The series deals with VCaP cells. Put plainly: Cytotoxicity assessment (Cell-titer-glo cell viability), VCaP. As to conditions: read-out: VCaP (CC50); VCaP cells, 6 days of treatment, Cell-titer-glo, vs DMSO.

Each structure is given as a SMILES string.

As usually defined, the CC50 is the concentration giving 50% cytotoxicity. On to `CC1(C)C(NC(=O)c2ccc(-n3cc(CN4CCN(c5ccc6nnn(C7CCC(=O)NC7=O)c(=O)c6c5)CC4)nn3)cc2)C(C)(C)C1Oc1ccc(C#N)c(Cl)c1` (centres unmarked) [Example 120, N-((1r,3r)-3-(3-chloro-4-cyanophenoxy)-2,2,4,4-tetramethylcyclobutyl)-4-(4-((4-(3-(2,6-dioxopiperidin-3-yl)-4-oxo-3,4-dihydrobenzo[d][1,2,3]triazin-6-yl)piperazin-1-yl)methyl)-1H-1,2,3-triazol-1-yl)benzamide], for which the CC50 worked out at 29.7 nM. Under `CC1(C)C(NC(=O)c2ccc(-n3cc(CN4CCN(C(=O)C5CCN(c6ccc7nnn(C8CCC(=O)NC8=O)c(=O)c7c6)CC5)CC4)nn3)cc2)C(C)(C)C1Oc1ccc(C#N)c(Cl)c1` (centres unmarked) [Example 121, N-((1r,3r)-3-(3-chloro-4-cyanophenoxy)-2,2,4,4-tetramethylcyclobutyl)-4-(4-((4-(1-(3-(2,6-dioxopiperidin-3-yl)-4-oxo-3,4-dihydrobenzo[d][1,2,3]triazin-6-yl)piperidine-4-carbonyl)piperazin-1-yl)methyl)-1H-1,2,3-triazol-1-yl)benzamide] stands 18 nM; under `CC1(C)C(NC(=O)c2ccc(-n3cc(CN4CCN(C(=O)C5CN(c6ccc7nnn(C8CCC(=O)NC8=O)c(=O)c7c6)C5)CC4)nn3)cc2)C(C)(C)C1Oc1ccc(C#N)c(Cl)c1` (centres unmarked) [Example 122, N-((1r,3r)-3-(3-chloro-4-cyanophenoxy)-2,2,4,4-tetramethylcyclobutyl)-4-(4-((4-(1-(3-(2,6-dioxopiperidin-3-yl)-4-oxo-3,4-dihydrobenzo[d][1,2,3]triazin-6-yl)azetidine-3-carbonyl)piperazin-1-yl)methyl)-1H-1,2,3-triazol-1-yl)benzamide], 18 nM. Turning to `CC1(C)[C@H](NC(=O)c2ccc(-n3cc(CN4CCN(C(=O)CNc5ccc6nnn(C7CCC(=O)NC7=O)c(=O)c6c5)CC4)nn3)cc2)C(C)(C)[C@H]1Oc1ccc(C#N)c(Cl)c1` (some centres unmarked) [Example 123, N-((1r,3r)-3-(3-chloro-4-cyanophenoxy)-2,2,4,4-tetramethylcyclobutyl)-4-(4-((4-((3-(2,6-dioxopiperidin-3-yl)-4-oxo-3,4-dihydrobenzo[d][1,2,3]triazin-6-yl)glycyl)piperazin-1-yl)methyl)-1H-1,2,3-triazol-1-yl)benzamide], the CC50 was 55 nM. As to `CC1(C)C(NC(=O)c2ccc(-c3cnn(C4CCN(CC5CCN(C(=O)C6CCN(c7ccc8nnn(C9CCC(=O)NC9=O)c(=O)c8c7)CC6)CC5)CC4)c3)nc2)C(C)(C)C1Oc1ccc(C#N)c(Cl)c1` (centres unmarked) [Example 124, N-((1r,3r)-3-(3-chloro-4-cyanophenoxy)-2,2,4,4-tetramethylcyclobutyl)-6-(1-(1-((1-(1-(3-(2,6-dioxopiperidin-3-yl)-4-oxo-3,4-dihydrobenzo[d][1,2,3]triazin-6-yl)piperidine-4-carbonyl)piperidin-4-yl)methyl)piperidin-4-yl)-1H-pyrazol-4-yl)nicotinamide], the CC50 came out at 13 nM.

For the molecule `CC1(C)C(NC(=O)c2ccc(-c3cnn(C4CCN(CC5CCN(C(=O)CNc6ccc7nnn(C8CCC(=O)NC8=O)c(=O)c7c6)CC5)CC4)c3)nc2)C(C)(C)C1Oc1ccc(C#N)c(Cl)c1` (centres unmarked) [Example 125, N-((1r,3r)-3-(3-chloro-4-cyanophenoxy)-2,2,4,4-tetramethylcyclobutyl)-6-(1-(1-((1-((3-(2,6-dioxopiperidin-3-yl)-4-oxo-3,4-dihydrobenzo[d][1,2,3]triazin-6-yl)glycyl)piperidin-4-yl)methyl)piperidin-4-yl)-1H-pyrazol-4-yl)nicotinamide], the CC50 is 15.5 nM. As for `CC1(C)C(NC(=O)c2ccc(C#CCC3CCN(CC4CCN(C(=O)C5CCN(c6ccc7nnn(C8CCC(=O)NC8=O)c(=O)c7c6)CC5)CC4)CC3)nc2)C(C)(C)C1Oc1ccc(C#N)c(Cl)c1` (centres unmarked) [Example 126, N-((1r,3r)-3-(3-chloro-4-cyanophenoxy)-2,2,4,4-tetramethylcyclobutyl)-6-(3-(1-((1-(1-(3-(2,6-dioxopiperidin-3-yl)-4-oxo-3,4-dihydrobenzo[d][1,2,3]triazin-6-yl)piperidine-4-carbonyl)piperidin-4-yl)methyl)piperidin-4-yl)prop-1-yn-1-yl)nicotinamide], the CC50 was 40 nM. Under `CC1(C)C(NC(=O)c2ccc(C#CCC3CCN(CC4CCN(C(=O)C5CN(c6ccc7nnn(C8CCC(=O)NC8=O)c(=O)c7c6)C5)CC4)CC3)nc2)C(C)(C)C1Oc1ccc(C#N)c(Cl)c1` (centres unmarked) [Example 127, N-((1r,3r)-3-(3-chloro-4-cyanophenoxy)-2,2,4,4-tetramethylcyclobutyl)-6-(3-(1-((1-(1-(3-(2,6-dioxopiperidin-3-yl)-4-oxo-3,4-dihydrobenzo[d][1,2,3]triazin-6-yl)azetidine-3-carbonyl)piperidin-4-yl)methyl)piperidin-4-yl)prop-1-yn-1-yl)nicotinamide] stands 27 nM; under `CC1(C)C(NC(=O)c2ccc(C#CCC3CCN(CC4CCN(C(=O)CNc5ccc6nnn(C7CCC(=O)NC7=O)c(=O)c6c5)CC4)CC3)nc2)C(C)(C)C1Oc1ccc(C#N)c(Cl)c1` (centres unmarked) [Example 128, N-((1r,3r)-3-(3-chloro-4-cyanophenoxy)-2,2,4,4-tetramethylcyclobutyl)-6-(3-(1-((1-((3-(2,6-dioxopiperidin-3-yl)-4-oxo-3,4-dihydrobenzo[d][1,2,3]triazin-6-yl)glycyl)piperidin-4-yl)methyl)piperidin-4-yl)prop-1-yn-1-yl)nicotinamide], 11 nM; under `CC1(C)C(NC(=O)c2ccc(C#CCC3CCN(CC4CCN(c5ccc6nnn(C7CCC(=O)NC7=O)c(=O)c6c5)CC4)CC3)nc2)C(C)(C)C1Oc1ccc(C#N)c(Cl)c1` (centres unmarked) [Example 129, N-((1r,3r)-3-(3-chloro-4-cyanophenoxy)-2,2,4,4-tetramethylcyclobutyl)-6-(3-(1-((1-(3-(2,6-dioxopiperidin-3-yl)-4-oxo-3,4-dihydrobenzo[d][1,2,3]triazin-6-yl)piperidin-4-yl)methyl)piperidin-4-yl)prop-1-yn-1-yl)nicotinamide], 19.4 nM. Under `CC1(C)C(NC(=O)c2ccc(C#CC3CCN(CC4CCN(C(=O)C5CCN(c6ccc7nnn(C8CCC(=O)NC8=O)c(=O)c7c6)CC5)CC4)CC3)nc2)C(C)(C)C1Oc1ccc(C#N)c(Cl)c1` (centres unmarked) [Example 130, N-((1r,3r)-3-(3-chloro-4-cyanophenoxy)-2,2,4,4-tetramethylcyclobutyl)-6-((1-((1-(1-(3-(2,6-dioxopiperidin-3-yl)-4-oxo-3,4-dihydrobenzo[d][1,2,3]triazin-6-yl)piperidine-4-carbonyl)piperidin-4-yl)methyl)piperidin-4-yl)ethynyl)nicotinamide] stands 17 nM; under `CC1(C)C(NC(=O)c2ccc(C#CC3CCN(CC4CCN(C(=O)C5CCN(c6ccc7nnn(C8CCC(=O)NC8=O)c(=O)c7c6)CC5)CC4)CC3)nc2)C(C)(C)C1Oc1ccc(C#N)c(Cl)c1` (centres unmarked) [Example 131, N-((1r,3r)-3-(3-chloro-4-cyanophenoxy)-2,2,4,4-tetramethylcyclobutyl)-6-((1-((1-(1-(3-(2,6-dioxopiperidin-3-yl)-4-oxo-3,4-dihydrobenzo[d][1,2,3]triazin-6-yl)piperidine-4-carbonyl)piperidin-4-yl)methyl)piperidin-4-yl)ethynyl)nicotinamide], 18.5 nM. Regarding `CC1(C)C(NC(=O)c2ccc(C#CC3CCN(CC4CCN(C(=O)CNc5ccc6nnn(C7CCC(=O)NC7=O)c(=O)c6c5)CC4)CC3)nc2)C(C)(C)C1Oc1ccc(C#N)c(Cl)c1` (centres unmarked) [Example 132, N-((1r,3r)-3-(3-chloro-4-cyanophenoxy)-2,2,4,4-tetramethylcyclobutyl)-6-((1-((1-((3-(2,6-dioxopiperidin-3-yl)-4-oxo-3,4-dihydrobenzo[d][1,2,3]triazin-6-yl)glycyl)piperidin-4-yl)methyl)piperidin-4-yl)ethynyl)nicotinamide], the CC50 worked out at 15 nM. In the case of `CC1(C)C(NC(=O)c2ccc(C#CC3CCN(CC4CCN(C(=O)COc5ccc6nnn(C7CCC(=O)NC7=O)c(=O)c6c5)CC4)CC3)nc2)C(C)(C)C1Oc1ccc(C#N)c(Cl)c1` (centres unmarked) [Example 133, N-((1r,3r)-3-(3-chloro-4-cyanophenoxy)-2,2,4,4-tetramethylcyclobutyl)-6-((1-((1-(2-((3-(2,6-dioxopiperidin-3-yl)-4-oxo-3,4-dihydrobenzo[d][1,2,3]triazin-6-yl)oxy)acetyl)piperidin-4-yl)methyl)piperidin-4-yl)ethynyl)nicotinamide], the CC50 was 15 nM. Regarding `CC1(C)[C@H](NC(=O)c2ccc(N3CCN(CCCc4cn(-c5ccc6nnn(C7CCC(=O)NC7=O)c(=O)c6c5)nn4)CC3)cc2)C(C)(C)[C@H]1Oc1ccc(C#N)c(Cl)c1` (some centres unmarked) [Example 134, N-((1r,3r)-3-(3-chloro-4-cyanophenoxy)-2,2,4,4-tetramethylcyclobutyl)-4-(4-(3-(1-(3-(2,6-dioxopiperidin-3-yl)-4-oxo-3,4-dihydrobenzo[d][1,2,3]triazin-6-yl)-1H-1,2,3-triazol-4-yl)propyl)piperazin-1-yl)benzamide], the CC50 was 64.5 nM. With `CC1(C)C(NC(=O)c2ccc(N3CC4CN(C(=O)COc5ccc6nnn(C7CCC(=O)NC7=O)c(=O)c6c5)CC4C3)cc2)C(C)(C)C1Oc1ccc(C#N)c(Cl)c1` (centres unmarked) [Example 135, N-((1r,3r)-3-(3-chloro-4-cyanophenoxy)-2,2,4,4-tetramethylcyclobutyl)-4-(5-(2-((3-(2,6-dioxopiperidin-3-yl)-4-oxo-3,4-dihydrobenzo[d][1,2,3]triazin-6-yl)oxy)acetyl)hexahydropyrrolo[3,4-c]pyrrol-2(1H)-yl)benzamide], the CC50 was approximately 10 nM. On to `CC1(C)C(NC(=O)c2ccc(N3CC4CN(C(=O)CNc5ccc6nnn(C7CCC(=O)NC7=O)c(=O)c6c5)CC4C3)cc2)C(C)(C)C1Oc1ccc(C#N)c(Cl)c1` (centres unmarked) [Example 136, N-((1r,3r)-3-(3-chloro-4-cyanophenoxy)-2,2,4,4-tetramethylcyclobutyl)-4-(5-((3-(2,6-dioxopiperidin-3-yl)-4-oxo-3,4-dihydrobenzo[d][1,2,3]triazin-6-yl)glycyl)hexahydropyrrolo[3,4-c]pyrrol-2(1H)-yl)benzamide], for which the CC50 came to 67.7 nM.
